Laboratory results from US20250360167A1 (Keryx Biopharmaceuticals, Inc., priority 2013, published 2025).

Test system: serum phosphorus
Assay: Phase 3 trial (Example 1), four-week placebo-controlled Efficacy Assessment Period: serum phosphorus
Type: in vivo, human
Conditions: for Serum Phosphorus, Mean / Serum Phosphorus, Median: Efficacy Assessment Period; for Serum Phosphorus, Mean / Serum Phosphorus, Median / Serum Phosphorus, LS Mean / Serum Phosphorus, Treatment Differences, LS Mean (KRX-0502) − LS Mean (Placebo), (SE) / Serum Phosphorus, Change from Baseline, Mean / Serum Phosphorus, Change from Baseline, Median: Table 14; for Serum Phosphorus, Change from Baseline, Mean / Serum Phosphorus, Change from Baseline, Median: Week-52 baseline
Source text: This trial was a three-period, multicenter, safety and efficacy clinical trial.
Period 3 (Efficacy Assessment Period). Following the Safety Assessment Period, those patients randomized to treatment with ferric citrate entered a four-week, randomized, open-label, placebo-controlled Efficacy Assessment Period.
Serum phosphorus and calcium were checked at Visit 5 (Week 1), and every two weeks during the first 12 weeks after Visit 4 (Randomization Visit), and monthly for the rest of the Safety Assessment Period. During the Efficacy Assessment Period, serum phosphorus and calcium were drawn weekly. These values guided study drug administration. While on study drug, the use of other phosphate binders was not permitted. […] The titration of calcium acetate and sevelamer carbonate throughout the 52-week Safety Assessment Period were according to the current package inserts for these agents and/or at the discretion of the site PI.
Serum phosphorus and calcium were performed at Screening (Visit 0); weekly during the Washout Period after Visit 1 (Week −2); at Visit 4 (Randomization Visit); at Visits 5 (Week 1), 6 (Week 2), 7 (Week 4), 8 (Week 6), 9 (Week 8), 10 (Week 10), 11 (Week 12), 12 (Week 16), 13 (Week 20), 14 (Week 24), 15 (Week 28), 16 (Week 32), 17 (Week 36), 18 (Week 40), 19 (Week 44), 20 (Week 48), and 21 (Week 52) of the 52-week Safety Assessment Period; and at Visits 22 (Week 53), 23 (Week 54), 24 (Week 55) and 25 (Week 56) of the Efficacy Assessment Period.
There were two unique and distinct baseline assessments. The baseline for the Safety Assessment Period was the Randomization Visit (Visit 4) and was defined as “Week-O-baseline.” The baseline for the Efficacy Assessment Period was the last visit of the Safety Assessment Period (Visit 21, Week 52) and was defined as “study-baseline.”
The primary efficacy variable was analyzed via an ANCOVA model with treatment as the fixed effect and study-baseline as the covariate. Between-treatment differences were estimated and two-sided 95% confidence intervals for the differences were presented.

Substance: iron (+3), x (1, 2, 3-propanetricarboxylic acid, 2-hydroxy-), y (H2O) [KRX-0502]
- Mean Serum Phosphorus (End of Treatment (Week 56), LOCF, Table A): 4.9 mg/dL
- Serum Phosphorus, Mean (Week 52 Baseline): 5.16
- Serum Phosphorus, Median (Week 52 Baseline): 5.10
- Serum Phosphorus, LS Mean (Week 53, ANCOVA): 4.92
- Serum Phosphorus, Mean (Week 53): 4.90
- Serum Phosphorus, Median (Week 53): 4.95
- Serum Phosphorus, Treatment Differences, LS Mean (KRX-0502) − LS Mean (Placebo), (SE) (Week 53): −1.73 (0.21)
- Serum Phosphorus, Change from Baseline, Mean (Week 53): −0.31
- Serum Phosphorus, Change from Baseline, Median (Week 53): −0.30
- Serum Phosphorus, LS Mean (Week 54, ANCOVA): 4.80
- Serum Phosphorus, Mean (Week 54): 4.78
- Serum Phosphorus, Median (Week 54): 4.70
- Serum Phosphorus, Treatment Differences, LS Mean (KRX-0502) − LS Mean (Placebo), (SE) (Week 54): −2.08 (0.22)
- Serum Phosphorus, Change from Baseline, Mean (Week 54): −0.36
- Serum Phosphorus, Change from Baseline, Median (Week 54): −0.40
- Serum Phosphorus, LS Mean (Week 55, ANCOVA): 4.76
- Serum Phosphorus, Mean (Week 55): 4.75
- Serum Phosphorus, Median (Week 55): 4.60
- Serum Phosphorus, Treatment Differences, LS Mean (KRX-0502) − LS Mean (Placebo), (SE) (Week 55): −2.18 (0.23)
- Serum Phosphorus, Change from Baseline, Mean (Week 55): −0.41
- Serum Phosphorus, Change from Baseline, Median (Week 55): −0.50
- Serum Phosphorus, LS Mean (Week 56, ANCOVA): 4.94
- Mean Serum Phosphorus, Least Squares (LS) Mean Difference from Placebo (Week 56, ANCOVA, Table A): -2.3 mg/dL
- Serum Phosphorus, Mean (Week 56): 4.92
- Serum Phosphorus, Median (Week 56): 4.60
- Serum Phosphorus, Treatment Differences, LS Mean (KRX-0502) − LS Mean (Placebo), (SE) (Week 56): −2.28 (0.23)
- Serum Phosphorus, Change from Baseline, Mean (Week 56): −0.23
- Serum Phosphorus, Change from Baseline, Median (Week 56): −0.50
- Mean Serum Phosphorus (baseline Week 52, Table A): 5.2 mg/dL
- Mean Serum Phosphorus, Change from Baseline at Week 56 (baseline Week 52, Table A): -0.3 mg/dL
